Measured values from patent US20040072915A1, “Novel medicines based on sesquiterpene mixtures” (priority 2000, published 2004).

Test system: MCF7 cells
Experiment: Cell counts of MCF7 cells in culture with F, B or F+B (Example 1)
Assay type: cell-based
Experimental: Cells of line MCF7 are rapidly growing mammary adenocarcinoma cells. The doses tested in the study were 0.1.10^-3 and 0.5.10^-3 M. 1/100 dilutions were made in RPMT just before use and mixed to obtain a homogeneous emulsion at the moment of use. The mean number of cells inoculated was about 10^6 in each test. Test one: search for an effect on MCF7 cells at the dose of 0.5 mM. At the 11th transfer, the following were inoculated one bottle of MCF7 cells for growth, one bottle of MCF7 cells for the control, one bottle with the same number of calls +(F) at 0.5 mM, one bottle with the same number of cells +(F+B) at 0.5 mM, one bottle with the same number of cells +(B) at 0.5 mM. Bottles were placed in the incubator with caps unscrewed and the medium was changed every two days. On day 8, the cells were washed with 5 ml of PBS and freed from the substrate with PBS-EDTA, […] of RPMI+10% FCS and counted with a Malassez counting chamber. Test two: search of an effect on MCF7 cells at a dose of 0.1 mM. Same procedure as above is used but cells were used at the 12th transfer, using 0.1 mM doses of (F), (F+B) and (B).

[1] = test one, dose 0.5 mM, MCF7 cells counted on day 8, about 10^6 cells inoculated

Row | Structure (SMILES) | appearance of the culture bottle (adhering / floating dead cells) (test one, 0.5 mM, MCF7) | cell counts [1] | appearance of the culture bottle (adhering / floating dead cells) (test two, 0.1 mM, MCF7) | cell counts (test two, dose 0.1 mM, MCF7 cells counted on day 8, about 10^6 cells inoculated) | alteration of cell adherence in culture (test run at 0.1 mM, MCF7) | cell counts (test two (test at 0.1 mM), line printed as B at 0.5 mM)
1 | CC(C)=CCCC(C)=CCCC(C)=CCO [F, Farnesol] | few adhering cells and a large number of floating (dead) cells | 370 · 10^3 | few adhering cells and a large numbers of floating (dead) cells | 385 · 10^3 | – | –
2 | CC(C)=CCC[C@](C)(O)[C@@H]1CC=C(C)CC1 [B, α-bisabolol] | few adhering cells and a large numbers of floating (dead) cells | 250 · 10^3 | adhering homogeneous layer of cells with several dead cells | – | slight | 8930 · 10^3
